Laboratory results reported in ChEMBL document CHEMBL5346925, “3,4-Dihydrobenzo[e][1,2,3]oxathiazine 2,2-dioxide analogs act as potential AMPA receptor potentiators with antidepressant activity” (Eur J Med Chem, 2023).
Calls of active or inactive are those of the source. No cut-off for these calls is given here.

What was measured:
[1] = Drug concentration in Sprague-Dawley rat brain at 1 mg/kg, po measured after 6 hrs by LC-MS/MS analysis; type: ADME, organism-based; settings: read-out: Ct
[2] = MRT (0 to infinity) in Sprague-Dawley rat at 0.1 mg/kg, iv by LC-MS/MS analysis; type: ADME, organism-based; settings: in vivo
[3] = Oral bioavailability in Sprague-Dawley rat at 1 mg/kg by LC-MS/MS analysis; type: ADME, organism-based; settings: in vivo
[4] = Ratio of drug concentration in brain to plasma in Sprague-Dawley rat at 1 mg/kg, po measured after 4 hrs by LC-MS/MS analysis; type: ADME, organism-based; settings: read-out: BPR
[5] = Ratio of drug concentration in brain to plasma in Sprague-Dawley rat at 1 mg/kg, po measured after 8 hrs by LC-MS/MS analysis; type: ADME, organism-based; settings: read-out: BPR
[6] = Drug concentration in Sprague-Dawley rat plasma at 1 mg/kg, po measured after 0.25 hrs by LC-MS/MS analysis; type: ADME, organism-based
[7] = Drug concentration in Sprague-Dawley rat plasma at 1 mg/kg, po measured after 0.50 hrs by LC-MS/MS analysis; type: ADME, organism-based
[8] = Tmax in Sprague-Dawley rat at 0.1 mg/kg, iv by LC-MS/MS analysis; type: ADME, organism-based; settings: in vivo
[9] = Ratio of drug concentration in brain to plasma in Sprague-Dawley rat at 1 mg/kg, po measured after 0.50 hrs by LC-MS/MS analysis; type: ADME, organism-based; settings: read-out: BPR
[10] = AUC (0 to t) in Sprague-Dawley rat at 1 mg/kg, po by LC-MS/MS analysis; type: ADME, organism-based; design: dose 1 mg/kg, route po; settings: in vivo
[11] = Half life in Sprague-Dawley rat at 0.1 mg/kg, iv by LC-MS/MS analysis; type: ADME, organism-based; settings: in vivo
[12] = Cmax in Sprague-Dawley rat at 0.1 mg/kg, iv by LC-MS/MS analysis; type: ADME, organism-based; design: dose 0.1 mg/kg, route iv; settings: in vivo
[13] = Drug concentration in Sprague-Dawley rat plasma at 1 mg/kg, po measured after 1 hr by LC-MS/MS analysis; type: ADME, organism-based
[14] = Ratio of drug concentration in brain to plasma in Sprague-Dawley rat at 1 mg/kg, po measured after 24 hrs by LC-MS/MS analysis; type: ADME, organism-based; settings: read-out: BPR
[15] = Tmax in Sprague-Dawley rat at 1 mg/kg, po by LC-MS/MS analysis; type: ADME, organism-based; settings: in vivo
[16] = Toxicity in mouse assessed as histopathological changes in heart at 0.2 to 0.4 mg/kg, ip administered once daily for 2 weeks and measured after 15 days by H and E staining based analysis; type: organism-based; settings: in vivo, 360 h, dose 0.2-0.4 mg/kg, time 15 day
[17] = MRT (0 to infinity) in Sprague-Dawley rat at 1 mg/kg, po by LC-MS/MS analysis; type: ADME, organism-based; settings: in vivo
[18] = MRT (0 to t) in Sprague-Dawley rat at 0.1 mg/kg, iv by LC-MS/MS analysis; type: ADME, organism-based; settings: in vivo
[19] = Toxicity in mouse assessed as histopathological changes in lung at 0.2 to 0.4 mg/kg, ip administered once daily for 2 weeks and measured after 15 days by H and E staining based analysis; type: organism-based; settings: in vivo, 360 h, dose 0.2-0.4 mg/kg, time 15 day
[20] = Toxicity in mouse assessed as histopathological changes in spleen at 0.2 to 0.4 mg/kg, ip administered once daily for 2 weeks and measured after 15 days by H and E staining based analysis; type: organism-based; settings: in vivo, 360 h, dose 0.2-0.4 mg/kg, time 15 day
[21] = Drug concentration in Sprague-Dawley rat brain at 1 mg/kg, po measured after 0.25 hr by LC-MS/MS analysis; type: ADME, organism-based; settings: read-out: Ct
[22] = Ratio of drug concentration in brain to plasma in Sprague-Dawley rat at 1 mg/kg, po measured after 6 hrs by LC-MS/MS analysis; type: ADME, organism-based; settings: read-out: BPR
[23] = target: T1, Glutamate receptor ionotropic, AMPA (Rattus norvegicus) (UniProt P19491+P19492+P19493+P19490); experiment: Agonist activity at AMPA receptor in rat Primary neuron cells relative to control; type: cell-based; settings: filed as agonist
[24] = AUC (0 to infinity) in Sprague-Dawley rat at 1 mg/kg, po by LC-MS/MS analysis; type: ADME, organism-based; design: dose 1 mg/kg, route po; settings: in vivo
[25] = AUC (0 to t) in Sprague-Dawley rat at 0.1 mg/kg, iv by LC-MS/MS analysis; type: ADME, organism-based; design: dose 0.1 mg/kg, route iv; settings: in vivo
[26] = MRT (0 to t) in Sprague-Dawley rat at 1 mg/kg, po by LC-MS/MS analysis; type: ADME, organism-based; settings: in vivo
[27] = Drug concentration in Sprague-Dawley rat plasma at 1 mg/kg, po measured after 24 hr by LC-MS/MS analysis; type: ADME, organism-based
[28] = target: T1, Glutamate receptor ionotropic, AMPA (Rattus norvegicus); experiment: Agonist activity at AMPA receptor in rat Primary neuron cells assessed as potentiation of s-AMPA induced calcium flux at 1 uM incubated for 1 hr by calcium 2+ influx assay relative to s-AMPA coupled TAK-137; type: cell-based; settings: filed as agonist
[29] = Drug concentration in Sprague-Dawley rat plasma at 1 mg/kg, po measured after 8 hr by LC-MS/MS analysis; type: ADME, organism-based
[30] = Cmax in Sprague-Dawley rat at 1 mg/kg, po by LC-MS/MS analysis; type: ADME, organism-based; design: dose 1 mg/kg, route po; settings: in vivo
[31] = Clearance in Sprague-Dawley rat at 0.1 mg/kg, iv by LC-MS/MS analysis; type: ADME, organism-based; settings: in vivo
[32] = Drug concentration in Sprague-Dawley rat brain at 1 mg/kg, po measured after 4 hrs by LC-MS/MS analysis; type: ADME, organism-based; settings: read-out: Ct
[33] = Toxicity in mouse assessed as change in body weight at 0.2 to 0.4 mg/kg, ip administered once daily for 2 weeks; type: organism-based; settings: in vivo, 336 h, dose 0.2-0.4 mg/kg
[34] = target: Glutamate receptor ionotropic, AMPA (Rattus norvegicus, UniProt P19490+P19491+P19492+P19493); experiment: Agonist activity at AMPA receptor in rat Primary neuron cells; type: cell-based
[35] = Drug concentration in Sprague-Dawley rat plasma at 1 mg/kg, po measured after 6 hr by LC-MS/MS analysis; type: ADME, organism-based
[36] = Ratio of drug concentration in brain to plasma in Sprague-Dawley rat at 1 mg/kg, po measured after 1 hrs by LC-MS/MS analysis; type: ADME, organism-based; settings: read-out: BPR
[37] = Toxicity in mouse assessed as histopathological changes in liver at 0.2 to 0.4 mg/kg, ip administered once daily for 2 weeks and measured after 15 days by H and E staining based analysis; type: organism-based; settings: in vivo, 360 h, dose 0.2-0.4 mg/kg, time 15 day
[38] = Half life in Sprague-Dawley rat at 1 mg/kg, po by LC-MS/MS analysis; type: ADME, organism-based; settings: in vivo
[39] = Drug concentration in Sprague-Dawley rat brain at 1 mg/kg, po measured after 1 hr by LC-MS/MS analysis; type: ADME, organism-based; settings: read-out: Ct
[40] = Ratio of drug concentration in brain to plasma in Sprague-Dawley rat at 1 mg/kg, po measured after 2 hrs by LC-MS/MS analysis; type: ADME, organism-based; settings: read-out: BPR
[41] = Volume of distribution at steady state in Sprague-Dawley rat at 0.1 mg/kg, iv by LC-MS/MS analysis; type: ADME, organism-based; settings: in vivo, read-out: Vdss
Mus musculus = experiment: Antidepressant activity in chronic restraint induced depressive mouse assessed as rescue in sucrose preference at 0.03 to 0.05 mg/kg administered for 2 days after 16th day by sucrose preference test; type: functional, organism-based; settings: dose 0.03-0.05 mg/kg, time 2.0 day

With O=S1(=O)NCc2cccc(-c3ccc(-c4ccccc4F)cc3)c2O1 the concentration at 6 h [1] was 93 ng/g, the MRT inf [2] was 2.22 h and the bioavailability [3] was 67.2%. It also gave a Kp at 4 h [4] of 1.55, a Kp at 8 h [5] of 1.5 and a concentration at 0.25 h [6] of 125 ng/mL. It also gave a concentration at 0.5 h [7] of 142 ng/mL, a Tmax [8] of 4.8 min and a Kp at 0.5 h [9] of 1.08. The AUC(0-t) [10] was 805 ng·h/mL, the half-life [11] was 2.71 h and the Cmax [12] was 152 ng/mL. It also gave a concentration at 1 h [13] of 132 ng/mL, a Kp at 24 h [14] of 1.48 and a Tmax [15] of 0.5 h. For the same compound, the Activity [16] was “Non-Toxic”, the MRT inf [17] was 6.08 h and the MRT last [18] was 1.46 h. For the same compound, the Activity [19] was “Non-Toxic”, the Activity [20] was “Non-Toxic” and the concentration at 0.25 h [21] was 74.7 ng/g. The Kp at 6 h [22] was 1.73, the Emax [23] was 137% and the AUC(0-inf) [24] was 833 ng·h/mL. For the same compound, the AUC(0-t) [25] was 120 ng·h/mL, the MRT last [26] was 5.22 h and the concentration at 24 h [27] was 3.96 ng/mL. The Activity [28] was 80.2%, the concentration at 8 h [29] was 25.5 ng/mL and the Cmax [30] was 142 ng/mL. For the same compound, the clearance [31] was 12.9 mL/min/kg, the concentration at 4 h [32] was 120 ng/g and the Activity [33] was “Non-Toxic”. For the same compound, the EC50 [34] was 178 nM, the concentration at 6 h [35] was 54.2 ng/mL and the Kp at 1 h [36] was 1.63. For the same compound, the Activity [37] was “Non-Toxic”, the half-life [38] was 4.84 h and the concentration at 1 h [39] was 217 ng/g. The Kp at 2 h [40] was 2.15, the Vd [41] was 1.72 L/kg and the Activity (Mus musculus) was “Active”.
